According to the NIST ThermoML archive (doi:10.1007/s10765-017-2323-6):
Numbers after ± are expanded uncertainties.

Legend:
[1] = Molar enthalpy of transition or fusion; details: Crystal; DSC
[2] = Crystal; DTA

Molar enthalpy of transition or fusion [1]: 5.9 ± 0.143 kcal/mol
Normal melting temperature [2]: 82 ± 0.6 °C
SMILES: CC(=O)CCc1ccc(O)cc1 [4-(4-hydroxyphenyl)butan-2-one]
